Reference: patent US20040131701A1, “Method to treat infectious diseases and/or to enhance antimicrobial efficacy of drugs” (Virocell Inc., priority 2000, published 2004)

Tests used:
Type in all cases: cell-based
[1] = system: T-tropic strain HIV-1NL4-3; assay: Replication of HIV-1 in Sup-T1 cells (p24 in culture supernatants); conditions: 10 days, all three tested concentrations
Description: Fully infectious viral entities were generated by calcium phosphate transfection of 293T with pNL4-3 vector (T-tropic virions) as described below. Recombinant luciferase-encoding virus particles pseudotyped with the appropriate Env proteins have been used in our series of investigations. Such a system provides a highly sensitive and reproducible assay to monitor single-cycle viral infection events. This test is based on the molecular construct pNL4-3-Luc-E-R+, a vector that carries the gene for firefly luciferase inserted into the nef gene of the pNL4-3 provirus and contains also a frameshift at the 5′ end of env (nt 5950) that prevents expression of the envelope glycoproteins. […]
Sup-T1 cells were seeded at a density of 10^5 cells per well (100 μl) in 96-well flat-bottom, plates. […] Cells were incubated for 10 days and kinetics of viral infection was assessed by measuring in cell-free culture supernatants the major core viral p24 protein with the use of a commercial enzymatic assay (Organon Teknika). Putative toxicity of bpV molecules was assessed by adding the tetrazolium salt MTT to Sup-T1 cells that were cultured for 10 days under the constant pressure of the indicated concentrations of bpV[pic] and bpV[phen] molecules.

primary human MDM = assay: MTT toxicity in primary human MDM; conditions: 48 h, 20 μM
Description: Target cells used in the present invention include human CD4-expressing T lymphoid Sup-T1, PM1, and Jurkat cells. Moreover, primary human monocyte-derived macrophages (MDM) and peripheral blood mononuclear cells (PBMC′) were also used in the current work, MDM were obtained using a standard technique. In brief, the mononuclear cell fraction was isolated by Ficoll-Hypaque centrifugation. Peripheral blood mononuclear cells were suspended in seeding medium (RPMI 1640+20% fetal calf serum+10% human serum type AB) in tissue culture 48-well plates (3×10^6 cells/ml and 500 μl per well). Five days after the initiation of the cultures, nonadherent cells were removed by rinsing the cultures three times with phosphate buffered saline. Next, such adherent cells were maintained in RPMI 1640 medium supplemented with 20% fetal calf serum.
Putative toxicity of bpV[pic] and bpV[phen] molecules was next assessed by adding the tetrazolium salt MTT to primary human MDM that were cultured for 48 h under the constant pressure of the indicated concentrations of bpV compounds.

[2] = system: Human peripheral blood mononuclear cells; assay: HPLC analysis of phosphorylated forms of 3TC in PBMC's; conditions: 10 μM bpV[pic], 3TC at 5, 10 and 20 μM
Description: Analysis of the cellular content in 3TC and its phosphorylated metabolites was performed by HPLC as follows. In preparations for HPLC analysis, 1 ml of a mixture of acetonitrile/water (5/95, vol/vol) and 0.5 ml water were added to each sample. The samples were vortexed and centrifuged at 1000×g for 10 min at room temperature to remove the precipitated material. The supernatants were collected and used without further treatment for HPLC analysis. Two (2) ml of each sample (total volume of ˜2.5 ml) were injected onto a Beckman Ultrasphere ODS column (4.6 mm×150 mm) protected with a Guard-Pak C18 (Waters Millipore) pre-column. 3TC and its metabolites were eluted using a linear gradient from 100% solvent A to 100% solvent B in 25 minutes at a flow rate of 1.2 ml/minute (Solvent A: 5% acetonitrile, 70% water, 25% buffer [40 mM H3PO4, 8 mM tetrabutylammonium hydroxide, adjusted to pH 6.75 with concentrated ammonium hydroxide]; Solvent B: 40% acetonitrile, 35% water, 25% buffer). The elution of metabolites was monitored by counting radioactivity using a Flow Scintillation Analyser 500TR Series (Packard); the HPLC column effluent (1.2 ml/min) was mixed with a liquid scintillation cocktail (3 ml/min) (Ultima Flow M, Packard).
Human peripheral blood mononuclear cells (PBMC's) were obtained from healthy donors subjected to lymphopheresis for 60 min. The yield of PBMC's ranged from 1.8 to 2.6 billion cells per donor. Twenty-five (25) ml fractions of the cell suspensions (obtained by lymphopheresis) were layered on cushions (15 ml) of Lymphocyte Separation Medium (Wisent) in 50 ml tubes, which were then centrifuged at room temperature at 750×g during 25 min. The purified PBMC's were collected (on top of the Ficoll cushions) and washed 3 times in HBSS (without calcium and magnesium) (500×g, 7 min. at room temperature). The cells were resuspended in RPMI containing 5% FBS at the cell concentration of 25×10^6 per ml. Incubations were carried out using 1 ml of PBMC's suspension per tube. […]

K2[VO(O2)2pic].H2O [bpV[pic]]
HIV-1 production (p24) [1]: dramatic decrease of HIV-1 production
toxicity (MTT) (primary human MDM): toxic
formation of 3TC diphosphate [2]: decreased
formation of 3TC triphosphate [2]: increased
ratio of 3TC triphosphate over 3TC diphosphate [2]: consistently increases
